Data reported in US12234230B2, “Substituted benzyl-triazole compounds for Cbl-b inhibition, and further uses thereof” (Nurix Therapeutics, Inc., priority 2019, dated 2025).

Tests used:
[1] = tested on: primary human total T-cells; experiment: Primary human total T-cell activation (IL-2 secretion, CD25 surface staining), Biological Example 2; conditions: fold change over baseline; for CD25 staining CD3/CD28 0.3 μM / IL-2 secretion CD3/CD28 0.3 μM: 0.3 μM inhibitor; for CD25 staining CD3/CD28 0.3 μM / IL-2 secretion CD3/CD28 0.3 μM / CD25 staining CD3/CD28 1 μM / IL-2 secretion CD3/CD28 1 μM: anti-CD3 and anti-CD28 co-stimulation; for CD25 staining CD3/CD28 1 μM / IL-2 secretion CD3/CD28 1 μM / CD25 staining CD3 1 μM / IL-2 secretion CD3 1 μM: 1 μM inhibitor; for CD25 staining CD3 1 μM / IL-2 secretion CD3 1 μM / CD25 staining CD3 3 μM / IL-2 secretion CD3 3 μM: anti-CD3 stimulation alone; for CD25 staining CD3 3 μM / IL-2 secretion CD3 3 μM: 3 μM inhibitor
Method: Peripheral blood mononuclear cells (PBMC) were obtained either: 1) by using Ficoll-Paque™ (GE Healthcare) for separation of peripheral blood hematopoietic cells from buffy coats of healthy human donors; or 2) directly from LeukoPak donations. […] The cells were rested overnight at 37° C. 5% CO2. The Cbl-inhibitor was added to 1×10^5 cells per well and the plate was incubated for one hour at 37° C. in 5% CO2 at the concentrations indicated (Table 3) with a final DMSO concentration of <0.1%. For samples stimulated with anti-CD3 antibody and anti-CD28 antibody (anti-CD3/anti-CD28), the Cbl-b inhibitor concentrations tested were 1 μM, and 0.3 μM. For samples stimulated with anti-CD3 antibody alone (anti-CD3), the Cbl-b inhibitor concentrations tested were 3 μM, and 1 μM. […] To prepare plates with plate bound anti-CD3 antibody (OKT3), 96-well round bottom tissue culture plates were coated with 100 μL of anti-CD3 antibody (OKT3) at 10 μg/mL for 4 hours at 37° C. 5% CO2 in phosphate buffered saline (PBS). […] Cells were stimulated for 48 hours prior to harvesting the cell free supernatant and staining the cell population for surface marker assessment by flow cytometry. Supernatants were analyzed for cytokine secretion, including IL-2 by ELISA (R&D Systems, Peprotech or Life Technologies) or Luminex multiplex kits (Procarta Life Technologies) following the manufacturer's protocol. Cells were stained with anti-CD25 antibody (BD Biosciences) to assess levels of surface marker of activation.
Readouts were reported as fold change over baseline. Baseline for this study was the measurement obtained from total human T-cells stimulated with anti-CD3 antibody and with soluble anti-CD28 antibody, wherein the cells were not incubated with a Cbl-b inhibitor (Table 3).

[2] = tested on: primary human total T-cells; experiment: Primary human total T-cell activation (IL-2 secretion, CD25 surface staining), Biological Example 12; conditions: fold change over baseline, Table 12-1; for IL-2 secretion CD3/CD28 0.3 μM: 0.3 μM inhibitor; for IL-2 secretion CD3/CD28 0.3 μM / IL-2 secretion CD3/CD28 1 μM: anti-CD3 and anti-CD28 co-stimulation; for IL-2 secretion CD3/CD28 1 μM / IL-2 secretion CD3 1 μM: 1 μM inhibitor; for IL-2 secretion CD3 1 μM / IL-2 secretion CD3 3 μM: anti-CD3 stimulation alone; for IL-2 secretion CD3 3 μM: 3 μM inhibitor
Method: Peripheral blood mononuclear cells (PBMC) were obtained either: 1) by using Ficoll-Paque™ (GE Healthcare) for separation of peripheral blood hematopoietic cells from buffy coats of healthy human donors; or 2) directly from LeukoPak donations. […] The cells were rested overnight at 37° C. 5% CO2. The Cbl-inhibitor was added to 1×10^5 cells per well and the plate was incubated for one hour at 37° C. in 5% CO2 at the concentrations indicated (Table 12-1) with a final DMSO concentration of <0.1%. For samples stimulated with anti-CD3 antibody and anti-CD28 antibody (anti-CD3/anti-CD28), the Cbl-b inhibitor concentrations tested were 1 μM, and 0.3 μM. For samples stimulated with anti-CD3 antibody alone (anti-CD3), the Cbl-b inhibitor concentrations tested were 3 μM, and 1 μM. […] To prepare plates with plate bound anti-CD3 antibody (OKT3), 96-well round bottom tissue culture plates were coated with 100 μL of anti-CD3 antibody (OKT3) at 10 μg/mL for 4 hours at 37° C. 5% CO2 in phosphate buffered saline (PBS). […] Cells were stimulated for 48 hours prior to harvesting the cell free supernatant and staining the cell population for surface marker assessment by flow cytometry. Supernatants were analyzed for cytokine secretion, including IL-2 by ELISA (R&D Systems, Peprotech or Life Technologies) or Luminex multiplex kits (Procarta Life Technologies) following the manufacturer's protocol. Cells were stained with anti-CD25 antibody (BD Biosciences) to assess levels of surface marker of activation.
Readouts were reported as fold change over baseline. Baseline for this study was the measurement obtained from total human T-cells stimulated with anti-CD3 antibody and with soluble anti-CD28 antibody, wherein the cells were not incubated with a Cbl-b inhibitor (Table 12-1). […] For T-cells stimulated with anti-CD3 alone, changes greater than 0.1-fold over baseline for IL-2 secretion and greater than 0.6-fold over baseline for CD25 surface staining were considered significant and a positive response.

[3] = tested on: primary human total T-cells; experiment: Primary human total T-cell activation (IL-2 secretion, CD25 surface staining), Biological Example 9; conditions: fold change over baseline, Table 9-1; for IL-2 secretion CD3/CD28 0.3 μM: 0.3 μM inhibitor; for IL-2 secretion CD3/CD28 0.3 μM / IL-2 secretion CD3/CD28 1 μM: anti-CD3 and anti-CD28 co-stimulation; for IL-2 secretion CD3/CD28 1 μM / IL-2 secretion CD3 1 μM: 1 μM inhibitor; for IL-2 secretion CD3 1 μM / IL-2 secretion CD3 3 μM: anti-CD3 stimulation alone; for IL-2 secretion CD3 3 μM: 3 μM inhibitor
Method: Peripheral blood mononuclear cells (PBMC) were obtained either: 1) by using Ficoll-Paque™ (GE Healthcare) for separation of peripheral blood hematopoietic cells from buffy coats of healthy human donors; or 2) directly from LeukoPak donations. […] The cells were rested overnight at 37° C. 5% CO2. The Cbl-inhibitor was added to 1×10^5 cells per well and the plate was incubated for one hour at 37° C. in 5% CO2 at the concentrations indicated (Table 9-1) with a final DMSO concentration of <0.1%. For samples stimulated with anti-CD3 antibody and anti-CD28 antibody (anti-CD3/anti-CD28), the Cbl-b inhibitor concentrations tested were 1 μM, and 0.3 μM. For samples stimulated with anti-CD3 antibody alone (anti-CD3), the Cbl-b inhibitor concentrations tested were 3 μM, and 1 μM. […] To prepare plates with plate bound anti-CD3 antibody (OKT3), 96-well round bottom tissue culture plates were coated with 100 μL of anti-CD3 antibody (OKT3) at 10 μg/mL for 4 hours at 37° C. 5% CO2 in phosphate buffered saline (PBS). […] Cells were stimulated for 48 hours prior to harvesting the cell free supernatant and staining the cell population for surface marker assessment by flow cytometry. Supernatants were analyzed for cytokine secretion, including IL-2 by ELISA (R&D Systems, Peprotech or Life Technologies) or Luminex multiplex kits (Procarta Life Technologies) following the manufacturer's protocol. Cells were stained with anti-CD25 antibody (BD Biosciences) to assess levels of surface marker of activation.
Readouts were reported as fold change over baseline. Baseline for this study was the measurement obtained from total human T-cells stimulated with anti-CD3 antibody and with soluble anti-CD28 antibody, wherein the cells were not incubated with a Cbl-b inhibitor (Table 9-1). […] For T-cells stimulated with anti-CD3 alone, changes greater than 0.1-fold over baseline for IL-2 secretion and greater than 0.6-fold over baseline for CD25 surface staining were considered significant and a positive response.

Cbl-b [4] = molecular target: T1, Cbl-b (Homo sapiens (Human), UniProt Q13191); experiment: Cbl-b displacement assay (Cbl-b inhibition assay), Biological Example 11; type: binding; conditions: 0.125 nM Cbl-b final concentration (Low); Table 11-1
Method: (§1) Candidate compounds were evaluated for their ability to bind and inhibit Cbl-b, an E3 ubiquitin-protein ligase, as evidenced by their ability to displace a fluorophore-labeled probe bound to Cbl-b.
(§2) The ability of candidate compounds to displace a known inhibitor and thereby inhibit Cbl-b activity was measured by monitoring the interaction of Cbl-b with a fluorophore-labeled probe in the presence of the candidate compound.
(§3) Fluorescently-labeled inhibitor probe was synthesized and tagged with BODIPY FL. […] Following the one hour incubation, the plates were read for TR-FRET signal at 520/620 nm using an Envision plate reader (Perkin Elmer).
(§4) The resulting data for the Cbl-b activity assays were analyzed using standard methods to determine the IC50 values for the tested compounds.

TC-1 cells = experiment: TC-1 syngeneic mouse model, vaccine combination, Biological Example 15; type: in vivo; conditions: Compound 23 orally D13 to D47 in combination with HPV16 vaccine s.c. at D13 and D20; TC-1 tumor bearing mice
Method: Mice were implanted with 50,000 TC-1 cells/mouse subcutaneously into the right flank at Day Zero (DO). Thirteen days later (D13), when tumors measured approximately 50-100 mm^3, mice from appropriate groups (15 mice per group) were injected with HPV16 vaccine (s.c., total 2 doses, at D13 and Day 20 (D20)). […] Mice were euthanized when tumor exceeded 1500-2000 mm^3, according to IACUC guidelines. Survival was compared using GraphPad Prism using log-rank (Mantel-Cox) test. **=p<0.001 of treatment vs. Vehicle+Vaccine control group at Day 61.
TC-1 cells were derived by stable transfection of mouse lung epithelial cells with human papillomavirus strain 16 (HPV16) early proteins 6 and 7 (E6 and E7) and activated h-ras oncogene. Cells were obtained from Dr. T-C Wu (Johns Hopkins University). (Lin K Y, Guarnieri F G, Staveley-O'Carroll K F, Levitsky H I, August J T, Pardoll D M, et al. Treatment of established tumors with a novel vaccine that enhances major histocompatibility class II presentation of tumor antigen. Cancer Res 1996; 56:21-6).
The HPV16 vaccine was prepared as follows: The CTL epitope from HPV16 E749-57 (9 amino acid (aa) peptide, […], 100 μg/mouse, SEQ ID NO: 2) was mixed with synthetic T helper epitope PADRE (13 aa peptide, aK-Cha-[…]a, SEQ ID NO: 3, where “a” is D-alanine and Cha is L-cyclohexylalanine, 20 μg/mouse) and with QuilA adjuvant (20 ug/mouse).

[5] = tested on: colon carcinoma CT26 tumor cells; conditions: 30 mg/kg PO daily D8 to D28; CT26 tumors on both flanks; compared to vehicle control
Method: Mice were implanted with 100,000 colon carcinoma CT26 tumor cells on both flanks of the mice. […] Treatments were continued daily until Day Twenty Eight (D28). […] A group of mice received an oral vehicle (0.5% Methylcellulose, 0.2% Polysorbate 80). Tumor growth inhibition (TGI) was calculated as follows: (1−(median tumor volume of drug treated group/median tumor volume of vehicle treated group))×100.

Cbl-b [6] = molecular target: T1, Cbl-b; experiment: Cbl-b displacement assay (Cbl-b inhibition assay), Biological Example 8; type: binding; conditions: 0.125 nM Cbl-b final concentration (Low); Table 8-1
Method: as §1, §2, §3, §4

Cbl-b [7] = molecular target: T1, Cbl-b; experiment: Cbl-b displacement assay (Cbl-b inhibition assay), Biological Example 1; type: binding; conditions: 0.125 nM Cbl-b final concentration (Low); read-out: Cbl-b activity IC50 (Low)
Method: as §2
Following the one hour incubation, the plates were read for TR-FRET signal at 520/620 nm using an Envision plate reader (Perkin Elmer).

T1 sequence (Q13191 36-427): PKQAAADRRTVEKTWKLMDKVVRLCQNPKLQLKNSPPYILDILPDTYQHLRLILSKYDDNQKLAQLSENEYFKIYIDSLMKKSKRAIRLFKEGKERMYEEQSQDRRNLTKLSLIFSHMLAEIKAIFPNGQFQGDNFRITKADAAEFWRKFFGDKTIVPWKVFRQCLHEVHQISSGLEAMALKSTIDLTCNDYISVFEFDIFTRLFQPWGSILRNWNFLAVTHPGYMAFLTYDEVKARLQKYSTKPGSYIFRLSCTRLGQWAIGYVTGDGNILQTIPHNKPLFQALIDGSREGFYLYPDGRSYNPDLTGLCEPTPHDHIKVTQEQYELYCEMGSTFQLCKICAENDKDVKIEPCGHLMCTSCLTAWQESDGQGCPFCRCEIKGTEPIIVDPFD

Structure (SMILES) | CD25 staining CD3/CD28 0.3 μM [1] | IL-2 secretion CD3/CD28 0.3 μM [1] | CD25 staining CD3/CD28 1 μM [1] | IL-2 secretion CD3/CD28 1 μM [1] | IL-2 secretion CD3/CD28 0.3 μM [2] | IL-2 secretion CD3/CD28 1 μM [2] | IL-2 secretion CD3/CD28 0.3 μM [3] | IL-2 secretion CD3/CD28 1 μM [3] | IC50 (Cbl-b [4]) | IC50 (Cbl-b [6]) | IC50 (Cbl-b [7]) | CD25 staining CD3 1 μM [1] | IL-2 secretion CD3 1 μM [1] | CD25 staining CD3 3 μM [1] | IL-2 secretion CD3 3 μM [1] | IL-2 secretion CD3 1 μM [2] | IL-2 secretion CD3 3 μM [2] | IL-2 secretion CD3 1 μM [3] | IL-2 secretion CD3 3 μM [3] | also measured
C[C@H]1CCCN(Cc2cc3c(c(C(F)(F)F)c2)CN(c2cccc([C@]4(c5nncn5C)C[C@@H](C)C4)c2)C3=O)C1 [Compound 23, 2-(3-((1s,3R)-3-methyl-1-(4-methyl-4H-1,2,4-triazol-3-yl)cyclobutyl)phenyl)-6-(((S)-3-methylpiperidin-1-yl)methyl)-4-(trifluoromethyl)isoindolin-1-one] | B (B indicates 1.24-1.39 fold) | C (C indicates <20 fold) | B (B indicates 1.24-1.39 fold) | C (C indicates <20 fold) | A (A indicates >15 fold) | A (A indicates >15 fold) | A (A indicates >15 fold) | A (A indicates >15 fold) | < 1 nM | < 1 nM | < 5 nM | – | – | – | – | – | – | – | – | survival (TC-1 cells): prolonged survival; tumor progression (tumor volume) (TC-1 cells): significant slowdown of tumor progression; Tumor growth inhibition (TGI) [5]: 68%
C[C@H]1CCCN(Cc2cc3c(c(C(F)(F)F)c2)CN(c2cccc([C@]4(c5nncn5C)C[C@@H](C#N)C4)c2)C3=O)C1 [Compound 38, (1R,3s)-3-(4-methyl-4H-1,2,4-triazol-3-yl)-3-(3-(6-(((S)-3-methylpiperidin-1-yl)methyl)-1-oxo-4-(trifluoromethyl)isoindolin-2-yl)phenyl)cyclobutane-1-carbonitrile] | – | B (B indicates 20-35 fold) | – | B (B indicates 20-35 fold) | A (A indicates >15 fold) | A (A indicates >15 fold) | A (A indicates >15 fold) | A (A indicates >15 fold) | 1 to 5 nM | 1 to 5 nM | < 5 nM | A (A indicates >2.5 fold) | A (A indicates >1.1 fold) | A (A indicates >2.5 fold) | B (B indicates 0.70-1.1 fold) | A (A indicates >0.66 fold) | A (A indicates >0.66 fold) | A (A indicates >0.66 fold) | A (A indicates >0.66 fold) | –
C[C@H]1CCCN(Cc2cc3c(c(C(F)(F)F)c2)CN(c2cccc(C4(c5nncn5C)CC5(CC5)C4)c2)C3=O)C1 [Compound 42, 6-[[(3S)-3-methyl-1-piperidyl]methyl]-2-[3-[5-(4-methyl-1,2,4-triazol-3-yl)spiro[2.3]hexan-5-yl]phenyl]-4-(trifluoromethyl)isoindolin-1-one] | B (B indicates 1.24-1.39 fold) | B (B indicates 20-35 fold) | B (B indicates 1.24-1.39 fold) | A (A indicates >35 fold) | A (A indicates >15 fold) | A (A indicates >15 fold) | A (A indicates >15 fold) | A (A indicates >15 fold) | < 1 nM | < 1 nM | < 5 nM | A (A indicates >2.5 fold) | A (A indicates >1.1 fold) | A (A indicates >2.5 fold) | A (A indicates >1.1 fold) | A (A indicates >0.66 fold) | A (A indicates >0.66 fold) | A (A indicates >0.66 fold) | A (A indicates >0.66 fold) | –
